Experimental data taken from US6337344B1, “Indole derivatives as inhibitors or factor Xa” (Aventis Pharma Deutschland GmbH, priority 1997, dated 2002).
Structures can show the parent of a compound that is named as a salt.

| melting point | Compound |
| --- | --- |
| 117 °C | N=C(N)c1cccc(Cn2c(C(=O)NCc3cc(Cl)cc(Cl)c3)cc3c(O)cccc32)c1 (as salt: trifluoroacetic acid salt) [Example 120] |
| 95 °C | COC(=O)c1cccc(CNC(=O)c2cc3c(O)cccc3n2Cc2cccc(C(=N)N)c2)c1 (as salt: trifluoroacetic acid salt) [Example 132] |
| 220 to 222 °C | COc1cccc2c1cc(C(=O)NCCc1ccncc1)n2Cc1cccc(/C(N)=N/O)c1 [Example 49, 1-(3-Hydroxyamidino-benzyl)-4-methoxy-1H-indole-2-carboxylic acid 2-(4-pyridyl)-ethyl amide] |
| 173 to 175 °C (dec.) | COc1cccc2c1cc(C(=O)NCCc1ccc(O)cc1)n2Cc1cccc(/C(N)=N/O)c1 [Example 51, 1-(3-Hydroxyamidino-benzyl)-4-methoxy-1H-indole-2-carboxylic acid 2-(4-hydroxy-phenyl)-ethyl amide] |
| 200 °C (dec.) | CN(C)c1ccc(CNC(=O)c2cc3cc(Cl)ccc3n2Cc2cccc(/C(N)=N/O)c2)cc1 [Example 52, 1-(3-Hydroxyamidino-benzyl)-5-chloro-1H-indole-2-carboxylic acid (4-dimethylamino)-benzyl amide] |
| 114 to 116 °C | N/C(=N\O)c1cccc(COC(=O)c2cc3ccccc3n2Cc2cccc(/C(N)=N/O)c2)c1 [Example 53, 1-(3-Hydroxyamidino-benzyl)-1H-indole-2-carboxylic acid (3-hydroxyamidino-benzyl)ester] |
| 158 °C (dec.) | C[N+](C)(C)c1ccc(CNC(=O)c2cc3c(OCc4ccccc4)cccc3n2Cc2cccc(C(=N)N)c2)cc1.[I-] [Example 68, [4-({[1-(3-Amidino-benzyl)-4-benzyloxy-1H-indole-2-carbonyl]-amino}-methyl)-phenyl]-trimethyl-ammonium iodide hydroiodide] |

Continued, compound first:

| Compound | melting point |
| --- | --- |
| N=C(N)c1ccc(Cn2c(C(=O)NC(c3ccccc3)c3ccncc3)cc3ccccc32)cc1.O=C(O)C(F)(F)F.O=C(O)C(F)(F)F (racemic) | 150 °C |
| COc1cccc2c1cc(C(=O)NC(c1ccccc1)c1ccncc1)n2Cc1cccc(C(=N)N)c1.O=C(O)C(F)(F)F.O=C(O)C(F)(F)F (racemic) | 105 °C |
| COc1cccc2c1cc(C(=O)NC(c1ccccc1)c1cc[n+](C)cc1)n2Cc1cccc(C(=N)N)c1.O=C(O)C(F)(F)F.O=C([O-])C(F)(F)F (racemic) [Example 24, (RS)-4-({[1-(3-Amidino-benzyl)-4-methoxy-1H-indole-2-carbonyl]-amino}-phenyl-methyl)-1-methyl-pyridinium trifluoroacetate trifluoroacetic acid salt] | 135 °C |
| Cc1cccc2c1cc(C(=O)NCc1ccc([N+](C)(C)C)cc1)n2Cc1cccc(C(=N)N)c1.O=C(O)C(F)(F)F.O=C([O-])C(F)(F)F [Example 35, [4-({[1-(3-Amidino-benzyl)-4-methyl-1H-indole-2-carbonyl]-amino}-methyl)-phenyl]-trimethyl-ammonium trifluoroacetate trifluoroacetic acid salt] | 81 °C (dec.) |
| C[N+](C)(C)c1ccc(CNC(=O)c2cc3cc(OCc4ccccc4)ccc3n2Cc2cccc(C(=N)N)c2)cc1.O=C(O)C(F)(F)F.O=C([O-])C(F)(F)F [Example 56, [4-({[5-Benzyloxy-1-(3-amidino-benzyl)-1H-indole-2-carbonyl]-amino}-methyl)-phenyl]-trimethyl-ammonium trifluoroacetate trifluoroacetic acid salt] | 60 °C (dec.) |
| N=C(N)c1cccc(CNC(=O)c2cc3c(O)cccc3n2Cc2cccc(C(=N)N)c2)c1.O=C(O)C(F)(F)F.O=C(O)C(F)(F)F [Example 77, 1-(3-Amidino-benzyl)-4-hydroxy-1H-indole-2-carboxylic acid 3-amidino-benzylamide trifluoroacetic acid salt] | 128 to 131 °C |
